Test results from PubChem BioAssay (NCI).
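Cells were grown in 96-well plates and exposed to each compound for 48 hours at five concentrations; endpoints were interpolated linearly between bracketing concentrations, or set to the highest concentration if not reached. The concentration for full growth arrest is given as TGI.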

How the values were obtained:
Test in all cases: growth of human tumour cells (NCI), 48 h
SF-295 CNS = tested on: SF-295 CNS
HT29 colon = tested on: HT29 colon
COLO 205 colon = tested on: COLO 205 colon
U251 CNS = tested on: U251 CNS
OVCAR-3 ovarian = tested on: OVCAR-3 ovarian
SK-MEL-5 melanoma = tested on: SK-MEL-5 melanoma
SW-620 colon = tested on: SW-620 colon
SK-OV-3 ovarian = tested on: SK-OV-3 ovarian
MCF7 breast = tested on: MCF7 breast
UO-31 renal = tested on: UO-31 renal
HOP-62 NSCLC = tested on: HOP-62 NSCLC
786-0 renal = tested on: 786-0 renal

| SMILES | TGI (SF-295 CNS) [µM] | TGI (HT29 colon) [µM] | TGI (COLO 205 colon) [µM] | TGI (U251 CNS) [µM] | TGI (OVCAR-3 ovarian) [µM] | TGI (SK-MEL-5 melanoma) [µM] | TGI (SW-620 colon) [µM] | TGI (SK-OV-3 ovarian) [µM] | TGI (MCF7 breast) [µM] | TGI (UO-31 renal) [µM] | TGI (HOP-62 NSCLC) [µM] | TGI (786-0 renal) [µM] |
| --- | --- | --- | --- | --- | --- | --- | --- | --- | --- | --- | --- | --- |
| CN(C)C(=O)Oc1ccc(C(=S)Nc2ccccc2)cc1 | > 100 | > 100 | > 100 | > 100 | > 100 | 55.6 | > 100 | > 100 | > 100 | > 100 | > 100 | > 100 |
| C[n+]1c2ccccc2c(C(=O)Nc2ccc(S(=O)(=O)Nc3ncccn3)cc2)c2ccccc21 | > 100 | > 100 | > 100 | > 100 | > 100 | > 100 | > 100 | > 100 | > 100 | > 100 | > 100 | > 100 |
| Cc1cc(C)nc(NS(=O)(=O)c2ccc(Nc3c4ccccc4nc4ccc(C(=O)Nc5ccc(S(=O)(=O)N=C(N)N)cc5)cc34)cc2)n1 | > 100 | > 100 | > 100 | > 100 | > 100 | > 100 | > 100 | > 100 | 43.9 | > 100 | > 100 | 53 |
| O=C1C=C/C(=C/[C@H]2SSC=C[C@]23C=CC(=O)C3)C1 | > 100 | 32.2 | 53 | > 100 | 85.6 | 38.9 | > 51.5 | > 100 | > 100 | 32.5 | > 73.8 | 28.7 |
| CCOC(=O)c1cc2c3c(cc(OC)c2[nH]1)N(C(=O)OCC)CC3 | > 100 | > 100 | > 100 | > 100 | > 100 | > 100 | > 100 | > 100 | > 100 | > 100 | > 100 | > 100 |
| N#CC(NNC(=O)c1ccccc1O)c1c(O)ccc2ccccc12 (centres undefined) | 50.5 | > 87.7 | 23.6 | 37.1 | 23.8 | 10.4 | > 60.9 | 40.7 | 53.6 | 11.4 | 29.5 | 58.8 |
| CC1CCCN1CCCOC(=O)c1ccc(OC2C=CCCC2)cc1 (centres undefined) | 37.9 | 60.4 | 31.4 | > 100 | > 100 | 35.2 | 46.4 | > 100 | 49.6 | > 100 | 42.1 | 40.4 |
| COc1ccc(N=Nc2c(N)nn3c(SC)c(C#N)c(N)nc23)cc1 | 39.5 | 25.5 | 26.4 | 19.5 | 7.1 | 34.7 | 22.8 | 38.8 | 7.97 | 25.4 | 44 | 14.2 |
| CCOC(=O)c1cn(CC)c2ccc3c(c2c1=O)S(=O)(=O)C=C3 | > 100 | > 100 | > 100 | > 100 | > 100 | > 100 | > 100 | > 100 | > 100 | > 100 | > 100 | > 100 |
| c1ccc(Nc2nnc(CCCCCCCCc3nnc(Nc4ccccc4)o3)o2)cc1 | > 100 | > 100 | > 100 | > 100 | > 100 | > 100 | > 100 | > 100 | > 100 | > 100 | > 100 | > 100 |
| CSc1nc[nH]c1C(N)=S | > 100 | > 100 | > 100 | > 100 | > 100 | > 100 | > 100 | > 100 | > 100 | > 100 | > 100 | > 100 |
| Cc1nc(Cc2n[nH]c(C)n2)n[nH]1 | > 100 | > 100 | > 100 | > 100 | > 100 | > 100 | > 100 | > 100 | > 100 | > 100 | > 100 | > 100 |
| Cc1cc(=O)n2nc(CSc3nnc(Sc4cc(O)ccc4O)s3)sc2n1 | > 100 | > 100 | > 100 | > 100 | > 100 | > 100 | 44.5 | > 100 | 30.9 | > 100 | > 100 | > 100 |
| NC(N)=NCCCC(NC(=O)c1c2ccccc2nc2ccccc12)C(=O)O (centres undefined) | > 100 | > 100 | > 100 | > 100 | > 100 | > 100 | > 100 | > 100 | > 100 | > 100 | > 100 | > 100 |
| CC(C)(CN1CCCCC1)C(=O)CC(SCCS(=O)(=O)O)c1ccc(Cl)cc1 (centres undefined) | 15.8 | 12.6 | 8.94 | 22.3 | 17.9 | 20.8 | 9.07 | 28.8 | 11.8 | 15.1 | 25 | 8.91 |
| CC(=O)N[C@@H](Cc1ccc(O)cn1)C(=O)NC1CCCCC1 | > 100 | > 100 | > 100 | > 100 | > 100 | > 100 | > 100 | > 100 | > 100 | > 100 | > 100 | > 100 |
| COc1cc2c(cc1OC)C(=O)/C(=C/c1ccc(N(C)C)cc1)CC2 | > 10 | > 10 | > 10 | > 10 | > 10 | > 10 | > 10 | > 10 | > 10 | > 10 | > 10 | > 10 |
| COC(=O)[C@@H]1COC(=O)N1 | > 100 | > 100 | > 100 | > 100 | > 100 | > 100 | > 100 | > 100 | > 100 | > 100 | > 100 | > 100 |
| O=C(O)Cn1ccc(=O)c2cc([N+](=O)[O-])ccc21 | > 100 | > 100 | > 100 | > 100 | > 100 | > 100 | > 100 | > 100 | > 100 | > 100 | > 100 | > 100 |

| SMILES | TGI (SF-295 CNS) [µM] | TGI (HT29 colon) [µM] | TGI (COLO 205 colon) [µM] | TGI (U251 CNS) [µM] | TGI (OVCAR-3 ovarian) [µM] | TGI (SK-MEL-5 melanoma) [µM] | TGI (SW-620 colon) [µM] | TGI (SK-OV-3 ovarian) [µM] | TGI (MCF7 breast) [µM] | TGI (UO-31 renal) [µM] | TGI (HOP-62 NSCLC) [µM] | TGI (786-0 renal) [µM] |
| --- | --- | --- | --- | --- | --- | --- | --- | --- | --- | --- | --- | --- |
| Clc1ccc(C2=NCON=C2c2ccc(Cl)cc2)cc1 | 49.4 | 31.1 | 29.9 | 40.1 | 46.6 | 30.3 | 50.1 | 47.1 | 85.6 | 40.7 | > 100 | 42.7 |
| O=C1C2CC[C@@H]3C(=O)C(Cl)(Cl)[C@@H]3CCC2C1(Cl)Cl (some centres undefined) | > 100 | > 100 | > 100 | > 100 | > 100 | > 100 | > 100 | > 100 | > 91.1 | > 100 | > 29.7 | > 100 |
| O=C1c2ccccc2C(=O)c2sc(Nc3cc(Cl)ccc3Cl)nc21 | 17.4 | 36.1 | 34 | 33.5 | 4.07 | 2.98 | > 22.2 | 30.3 | 3.7 | 19.4 | 28.9 | 22.6 |
| CC(NNC(=O)c1ccncc1)c1ccc(Cl)cc1Cl (centres undefined) | > 100 | > 100 | > 100 | > 100 | > 100 | > 100 | > 100 | > 100 | > 100 | > 100 | > 100 | > 100 |
| CC[C@]1(Cc2ccc(OC)c(OC)c2)C=[N+]([O-])O[C@H](OC2CCCC2(c2ccccc2)c2ccccc2)[C@@H]1OC(=O)C(C)(C)C (some centres undefined) | 14.8 | 4.49 | 7.78 | > 55.6 | 2.92 | 4.09 | > 100 | > 86.1 | > 23.3 | 3.97 | 6.93 | 5.31 |
| CCc1cc2c(c3c1CCCC3=O)CC1(C2)Cc2cc(CC)c3c(c2C1)C(=O)CCC3 | > 100 | > 100 | > 100 | > 100 | > 100 | > 100 | > 100 | > 100 | > 100 | > 100 | > 100 | > 100 |
| Cc1ccc(-n2cc(-c3ccc(Cl)cc3)c3c(=N)n(N)cnc32)cc1 | 28.8 | 20.6 | 20.7 | 22.3 | 26.5 | 20.1 | 25.1 | 31.5 | 23.2 | 24 | 27.4 | 24.4 |
| C#CCOC(=O)C(=[N+]=[N-])C(=O)CC(C)C | > 10 | > 10 | > 10 | > 10 | > 10 | > 10 | > 10 | > 10 | > 10 | > 10 | > 10 | > 10 |
| O=C(O)CCC1NC(/C(=C/c2ccccc2O)NC(=O)c2ccccc2)OC1=O (centres undefined) | > 100 | > 100 | > 100 | > 100 | > 100 | > 100 | > 100 | > 100 | > 100 | 45.8 | 62.4 | > 100 |
| CC[C@@]12CCC(=S)N(CCSc3ccccc3)[C@@H]1c1c(n(S(=O)(=O)c3ccc(OC)cc3)c3ccccc13)CC2 | > 100 | > 100 | > 100 | > 100 | > 100 | > 100 | > 100 | > 100 | > 100 | > 100 | > 100 | > 100 |
| Cc1ccc2nc(C(=O)O)c(=O)[nH]c2c1 | > 100 | > 100 | > 100 | > 100 | > 100 | > 100 | > 100 | > 100 | > 100 | > 100 | > 100 | > 100 |
| CCC1CN2CCc3c([nH]c4ccccc34)[C@@](C(=O)OC)(c3cc4c(cc3OC)N(C)C3C(O)(C(=O)OC)C(C(=O)OC)C5(CC)C=CCN6CCC43C65)C[C@@H](C2)[C@@H]1C(C)(C)C (some centres undefined) | 0.555 | > 2.64 | > 6.1 | > 3.52 | > 2.85 | 1.25 | > 10 | > 10 | > 10 | > 6.12 | 1.25 | 7.16 |
| Clc1cc2ncn(C3CCCCO3)c2cc1Cl (centres undefined) | > 100 | > 100 | > 100 | > 100 | > 100 | > 100 | > 100 | > 100 | > 100 | 49.8 | > 100 | > 100 |
| Oc1ccc(SCc2cc(O)ccc2O)cc1 | 39 | > 100 | 38.8 | 28.4 | 22.4 | 22.5 | > 62.8 | > 96.7 | 27.4 | 20.7 | 43.7 | 36.4 |
| CC(C)=CCc1c2c(c(O)c3c(=O)c4c(oc13)-c1ccc(O)cc1OC4C=C(C)C)C=CC(C)(C)O2 (centres undefined) | 28.6 | 28.9 | 37.1 | 25.3 | 25.2 | 28.2 | 23.5 | 33.3 | 28.9 | 33.7 | 28.4 | 23.9 |
| Cc1cc2occ(S(=O)(=O)NC(=O)Nc3ccc(Cl)cc3)c(=O)c2c(=O)o1 | > 100 | > 100 | > 100 | > 100 | > 100 | > 100 | > 100 | > 100 | > 100 | > 100 | > 100 | > 100 |
| S=c1[nH]nc(CCCCCCCCc2n[nH]c(=S)o2)o1 | > 100 | > 100 | > 100 | > 100 | > 100 | > 100 | > 100 | > 100 | > 100 | > 100 | > 100 | > 100 |
| CC(=O)N1c2cc(N=NN(C)C)ccc2NC(=O)CC1C (centres undefined) | > 100 | > 100 | > 100 | > 100 | > 100 | > 100 | > 100 | > 100 | > 100 | > 100 | > 100 | > 100 |
